Measurements as given in patent publication US20070142396A1, “Treatment of pain with 1-[3-[4-(3-chlorophenyl)-1-piperazinyl]propyl]-5-methoxy-3,4-dihydro-2(1H)-quinolone or salt thereof” (Vela Pharmaceuticals, Inc., priority 2005, published 2007).

Test system: rats with L5 spinal nerve ligation (SNL model)
Assay: Spinal nerve ligation (L5) neuropathic pain model, mechanical threshold with von Frey filaments (Example 4)
Format: in vivo, rat
Details: 100 mg/kg oral
Excerpt: A total of 18 Sprague-Dawley (CD sub-strain) young adult (weight: 150-175 g) male rats were purchased from Harlan Sprague Dawley Company (Indianapolis, Ind.), Alabama colony. The rats were kept three per cage and had free access to food and water. Animals were kept in a room with a reversed light-dark cycle (light: 8:00 PM-8:00 AM) for 1 week before experimental manipulations. Ten rats were allocated to the present study. Eight rats were allocated to the study of Example 5, below.
The spinal nerve ligation (SNL) model of neuropathic pain was produced in all rats as described by Kim and Chung (Pain, 50, 355-363, 1992). Briefly, under gaseous anesthesia using halothane (3% for induction and 1.5% for maintenance) in oxygen, the left L5 spinal nerve was exposed by removing the paraspinal muscles and the transverse process of the L6 vertebra. The very proximal portion of the L5 spinal nerve was tightly ligated with 6-0 silk suture. The wounds were closed and anesthesia was discontinued. Rats were kept on a heated blanket until they had completely recovered from anesthesia.
OPC-14523 was dispersed in 0.5% tragacanth in distilled water at 20 mg/ml. It was administered as a oral injection in a dose of 100 mg/kg body weight. Gabapentin was prepared at 10 mg/ml in saline and was administered at 50 mg/kg body weight i.p. Gabapentin is a drug that was originally developed as an anticonvulsant but is now widely used as an analgesic for neuropathic pain (Abdi et al., Anesthesia & Analgesia 87:1360-1366 (1998)).
Ten rats were utilized in a Latin-square-design study comparing the activity of OPC-14523 and other compounds against neuropathic pain. Behavioral tests were conducted twice (1 day and 1 hour) before, as well as 1 and 4 days after, the neuropathic surgery. […] The ten rats were randomly divided into five groups of two rats each. […]
This procedure was repeated five times. […] The result was that all ten animals received each of the indicated five compounds in random order and then had mechanical thresholds determined at the indicated times.
Behavioral tests were conducted in a non-blind fashion. The foot withdrawal threshold to mechanical stimuli applied to the paw (mechanical threshold) was measured, as an indicator of mechanical sensitivity of the affected paw. The foot withdrawal threshold was measured using von Frey filaments. […] The mechanical thresholds were measured by using the “up-and-down” method (Chaplan et al., J. Neurosci. Methods 53(1):55-63, 1994), following the procedures described in previous studies (Park et al., Pain 87(2):171-179, 2000; Xie et al., J. Pain 2(5):270-278, 2001; Baik et al., J. Pain 4:212-221, 2003). […]

## COc1cccc2c1CCC(=O)N2CCCN1CCN(c2cccc(Cl)c2)CC1 [OPC-14523, 1-[3-[4-(3-chlorophenyl)-1-piperazinyl]propyl]-5-methoxy-3,4-dihydro-2(1H)-quinolone]
  level of mechanical threshold reached relative to level prior to ligation: comparable to the level observed prior to ligation
0.5-6 hours
  effect on mechanical threshold of the lesioned paw for foot withdrawals: significantly increased
